Experimental data taken from ChEMBL document CHEMBL1777672, “Synthesis and antifungal activities of natural and synthetic biflavonoids” (2011).
Converted amounts (≈) assume the structure as drawn. The source made the active and inactive calls. The calls are words filed in the database; no cut-off is given here.

How the values were obtained:
Aspergillus niger [1] = assay: Antifungal activity against Aspergillus niger ATCC 16404 after 48 hrs by agar diffusion bioautography method; assay type: functional, organism-based
Candida parapsilosis [2] = assay: Antifungal activity against Candida parapsilosis ATCC 22019 after 48 hrs by agar diffusion bioautography method; assay type: functional, organism-based
[3] = Antifungal activity against Rhizopus stolonifer (+) ATCC 6227b after 48 hrs by broth microdilution technique; assay type: functional
Cryptococcus neoformans [4] = assay: Antifungal activity against Cryptococcus neoformans ATCC 14116 after 72 hrs by agar diffusion bioautography method; assay type: functional, organism-based
[5] = Antifungal activity against Rhizopus stolonifer (+) ATCC 6227b after 48 hrs by agar diffusion bioautography method; assay type: functional
Candida albicans [6] = assay: Antifungal activity against Candida albicans ATCC 90028 after 48 hrs by broth microdilution technique; assay type: functional; conditions: ATCC 90028, 48 h
Cryptococcus neoformans [7] = assay: Antifungal activity against Cryptococcus neoformans ATCC 14116 after 72 hrs by broth microdilution technique; assay type: functional; conditions: ATCC 14116, 72 h
Aspergillus oryzae = assay: Antifungal activity against Aspergillus oryzae ATCC 10124 after 48 hrs by agar diffusion bioautography method; assay type: functional, organism-based
Candida albicans [8] = assay: Antifungal activity against Candida albicans ATCC 90028 after 48 hrs by agar diffusion bioautography method; assay type: functional, organism-based
Fusarium solani = assay: Antifungal activity against Fusarium solani ATCC 36031 after 48 hrs by agar diffusion bioautography method; assay type: functional, organism-based
Aspergillus niger [9] = assay: Antifungal activity against Aspergillus niger ATCC 16404 after 48 hrs by broth microdilution technique; assay type: functional; conditions: ATCC 16404, 48 h
Candida parapsilosis [10] = assay: Antifungal activity against Candida parapsilosis ATCC 22019 after 48 hrs by broth microdilution technique; assay type: functional; conditions: Lodderomyces parapsilosis, ATCC 22019, 48 h

SMILES | MIC [3] | MIC (Candida albicans [6]) | MIC (Cryptococcus neoformans [7]) | MIC (Aspergillus niger [9]) | MIC (Candida parapsilosis [10]) | Activity (Aspergillus niger [1]) | Activity (Candida parapsilosis [2]) | Activity (Cryptococcus neoformans [4]) | Activity [5] | Activity (Aspergillus oryzae) | Activity (Candida albicans [8]) | Activity (Fusarium solani)
O=C(/C=C/c1ccc(OCc2ccccc2)c(-c2cc(/C=C/C(=O)c3ccc(OCc4ccccc4)cc3O)ccc2OCc2ccccc2)c1)c1ccc(OCc2ccccc2)cc1O | – | – | – | – | – | inactive | inactive | Active | inactive | inactive | inactive | inactive
O=C1C[C@@H](c2ccc(O)c(-c3cc([C@@H]4CC(=O)c5c(O)cc(O)cc5O4)ccc3O)c2)Oc2cc(O)cc(O)c21 | – | – | – | – | – | inactive | inactive | inactive | inactive | inactive | inactive | inactive
O=c1cc(-c2ccccc2)oc2ccccc12 [FLAVONE] | 100 µM (≈ 22.2 µg/mL) | – | 100 µM (≈ 22.2 µg/mL) | 800 µM (≈ 178 µg/mL) | 200 µM (≈ 44.4 µg/mL) | – | – | – | – | – | – | –
O=C1CC(c2ccccc2-c2ccccc2C2CC(=O)c3ccc(OCc4ccccc4)cc3O2)Oc2cc(OCc3ccccc3)ccc21 (centres undefined) | – | – | – | – | – | inactive | inactive | inactive | inactive | inactive | inactive | inactive
O=c1c(O)c(-c2ccc(O)c(-c3cc(-c4oc5cc(O)cc(O)c5c(=O)c4O)ccc3O)c2)oc2cc(O)cc(O)c12 | – | – | – | – | – | inactive | inactive | inactive | inactive | inactive | inactive | inactive
COc1ccc(-c2cc(=O)c3cc(-c4ccc5oc(-c6ccc(OC)cc6)cc(=O)c5c4)ccc3o2)cc1 | – | – | – | – | – | inactive | inactive | inactive | inactive | inactive | inactive | inactive
O=c1cc(-c2ccc(O)cc2)oc2ccccc12 | – | – | – | – | 200 µM (≈ 47.6 µg/mL) | – | – | – | – | – | – | –
O=C1CC(c2ccc(OCc3ccccc3)c(-c3cc(C4CC(=O)c5ccc(OCc6ccccc6)cc5O4)ccc3OCc3ccccc3)c2)Oc2cc(OCc3ccccc3)ccc21 (centres undefined) | – | – | – | – | – | inactive | inactive | inactive | inactive | inactive | inactive | inactive
O=C(/C=C/c1ccc(OCc2ccccc2)c(-c2cc(/C=C/C(=O)c3c(O)cc(OCc4ccccc4)cc3OCc3ccccc3)ccc2OCc2ccccc2)c1)c1c(O)cc(OCc2ccccc2)cc1OCc1ccccc1 | – | – | – | – | – | inactive | inactive | inactive | inactive | inactive | inactive | inactive
C[C@@H]1[C@H](O)[C@@H](C)/C=C/C=C/C=C/C=C/C=C/C=C/C=C/[C@H](O[C@@H]2O[C@H](C)[C@@H](O)[C@H](N)[C@@H]2O)C[C@@H]2O[C@](O)(C[C@@H](O)C[C@@H](O)[C@H](O)CC[C@@H](O)C[C@@H](O)CC(=O)O[C@H]1C)C[C@H](O)[C@H]2C(=O)O | – | – | – | – | – | Active | Active | Active | Active | Active | Active | Active
O=c1c(-c2c(-c3ccccc3)oc3ccccc3c2=O)c(-c2ccccc2)oc2ccccc12 | > 800 µM | – | > 800 µM | – | 400 µM (≈ 177 µg/mL) | inactive | Active | Active | Active | inactive | inactive | inactive
O=c1cc(-c2ccccc2-c2ccccc2-c2cc(=O)c3ccccc3o2)oc2ccccc12 | 800 µM (≈ 354 µg/mL) | – | – | > 800 µM | – | Active | inactive | inactive | Active | inactive | inactive | inactive
O=C1CC(c2ccccc2-c2ccccc2C2CC(=O)c3ccc(O)cc3O2)Oc2cc(O)ccc21 (centres undefined) | – | – | – | – | – | inactive | inactive | inactive | inactive | inactive | inactive | inactive

Now from value to compound, other results behind:

MIC [3] | MIC (Candida albicans [6]) | MIC (Cryptococcus neoformans [7]) | MIC (Aspergillus niger [9]) | MIC (Candida parapsilosis [10]) | SMILES | Activity (Aspergillus niger [1]) | Activity (Candida parapsilosis [2]) | Activity (Cryptococcus neoformans [4]) | Activity [5] | Activity (Aspergillus oryzae) | Activity (Candida albicans [8]) | Activity (Fusarium solani)
200 µM (≈ 108 µg/mL) | 800 µM (≈ 434 µg/mL) | 13 µM (≈ 7.05 µg/mL) | – | – | O=C(/C=C/c1ccc(O)c(-c2cc(/C=C/C(=O)c3c(O)cc(O)cc3O)ccc2O)c1)c1c(O)cc(O)cc1O | inactive | inactive | Active | Active | inactive | Active | inactive
– | – | – | 100 µM (≈ 53.8 µg/mL) | – | O=c1cc(-c2ccc(O)c(-c3cc(-c4cc(=O)c5c(O)cc(O)cc5o4)ccc3O)c2)oc2cc(O)cc(O)c12 | Active | inactive | inactive | inactive | inactive | inactive | inactive
– | – | – | > 800 µM | – | O=C1CC(c2ccc(O)cc2)Oc2cc(O)ccc21 (centres undefined) | – | – | – | – | – | – | –
– | – | – | 200 µM (≈ 102 µg/mL) | – | O=C1CC(c2ccc(O)c(-c3cc(C4CC(=O)c5ccc(O)cc5O4)ccc3O)c2)Oc2cc(O)ccc21 (centres undefined) | Active | inactive | inactive | inactive | inactive | inactive | inactive
– | – | – | 6 µM (≈ 1.62 µg/mL) | – | O=c1cc(-c2ccc(O)cc2)oc2cc(O)cc(O)c12 [APIGENIN] | – | – | – | – | – | – | –
– | – | > 800 µM | > 800 µM | – | O=C(/C=C/c1ccccc1-c1ccccc1/C=C/C(=O)c1ccc(OCc2ccccc2)cc1O)c1ccc(OCc2ccccc2)cc1O | Active | inactive | Active | inactive | inactive | inactive | inactive
– | – | – | – | 400 µM (≈ 190 µg/mL) | O=c1cc(-c2ccc(O)cc2)oc2ccc(-c3ccc4oc(-c5ccc(O)cc5)cc(=O)c4c3)cc12 | inactive | Active | inactive | inactive | inactive | inactive | inactive
– | – | – | 400 µM (≈ 249 µg/mL) | – | COc1cc(OC)c2c(=O)cc(-c3ccc(OC)c(-c4cc(-c5cc(=O)c6c(OC)cc(OC)cc6o5)ccc4OC)c3)oc2c1 | Active | inactive | inactive | inactive | inactive | inactive | inactive
– | – | > 800 µM | 100 µM (≈ 33 µg/mL) | – | O=C(/C=C/c1ccccc1)c1ccc(OCc2ccccc2)cc1O | – | – | – | – | – | – | –
– | – | – | > 800 µM | – | COc1ccc(/C=C/C(=O)c2c(O)cc(OC)cc2OC)cc1 [FLAVOKAWAIN A] | – | – | – | – | – | – | –
– | > 800 µM | – | – | – | O=C1CC(c2ccc(OCc3ccccc3)cc2)Oc2cc(OCc3ccccc3)cc(O)c21 (centres undefined) | – | – | – | – | – | – | –
– | – | – | > 800 µM | – | COc1ccc(-c2cc(=O)c3c(OC)cc(OC)cc3o2)cc1 [TRIMETHYLAPIGENIN] | – | – | – | – | – | – | –
– | – | – | 13 µM (≈ 8.15 µg/mL) | – | COc1cc(O)c(C(=O)/C=C/c2ccc(OC)c(-c3cc(/C=C/C(=O)c4c(O)cc(OC)cc4OC)ccc3OC)c2)c(OC)c1 | Active | inactive | inactive | inactive | inactive | inactive | inactive
– | > 800 µM | – | – | – | O=C1CC(c2ccc(OCc3ccccc3)c(-c3cc(C4CC(=O)c5c(O)cc(OCc6ccccc6)cc5O4)ccc3OCc3ccccc3)c2)Oc2cc(OCc3ccccc3)cc(O)c21 (centres undefined) | inactive | inactive | inactive | inactive | inactive | Active | inactive
800 µM (≈ 218 µg/mL) | > 800 µM | 400 µM (≈ 109 µg/mL) | – | – | O=C(/C=C/c1ccc(O)cc1)c1c(O)cc(O)cc1O [4,2',4',6'-TETRAHYDROXYCHALCONE] | – | – | – | – | – | – | –
